From patent publication US12312337B2, “Compounds and methods for treating cancer” (ANTIDOTE IP HOLDINGS, LLC, priority 2019, dated 2025)

Molecular target: T1, human AhR (Homo sapiens, UniProt P35869)
T1 construct: INDIGO's Aryl Hydrocarbon Receptor (AhR) Reporter Cells include the luciferase reporter gene functionally linked to an AhR-responsive promoter
T1 sequence (P35869 11-848): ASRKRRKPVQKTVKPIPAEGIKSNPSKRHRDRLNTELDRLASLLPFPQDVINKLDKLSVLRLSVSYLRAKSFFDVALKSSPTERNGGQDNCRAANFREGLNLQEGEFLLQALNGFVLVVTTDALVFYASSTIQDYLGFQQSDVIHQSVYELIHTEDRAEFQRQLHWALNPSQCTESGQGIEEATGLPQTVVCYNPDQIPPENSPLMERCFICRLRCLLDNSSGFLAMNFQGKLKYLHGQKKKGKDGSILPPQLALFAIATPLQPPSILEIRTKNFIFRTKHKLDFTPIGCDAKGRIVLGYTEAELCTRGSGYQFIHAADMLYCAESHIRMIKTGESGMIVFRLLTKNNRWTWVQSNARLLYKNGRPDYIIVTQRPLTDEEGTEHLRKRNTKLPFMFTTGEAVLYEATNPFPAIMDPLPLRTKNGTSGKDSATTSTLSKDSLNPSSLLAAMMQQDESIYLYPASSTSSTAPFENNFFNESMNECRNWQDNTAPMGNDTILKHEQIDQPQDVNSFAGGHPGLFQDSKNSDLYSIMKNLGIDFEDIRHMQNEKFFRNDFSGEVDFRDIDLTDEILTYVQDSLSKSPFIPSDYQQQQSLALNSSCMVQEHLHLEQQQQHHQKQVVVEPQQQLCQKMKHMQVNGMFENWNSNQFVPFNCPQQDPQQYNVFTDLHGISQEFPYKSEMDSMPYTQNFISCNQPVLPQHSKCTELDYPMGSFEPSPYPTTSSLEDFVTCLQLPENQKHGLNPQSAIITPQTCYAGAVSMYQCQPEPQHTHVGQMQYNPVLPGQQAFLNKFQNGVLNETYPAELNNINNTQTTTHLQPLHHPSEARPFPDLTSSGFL
Assay: INDIGO AhR Reporter Assay (luciferase reporter cells, antagonist mode)
Type: cell-based
Details: antagonist mode with 50 nM of VAF347 (AhR agonist); 22-24 hours incubation; luciferase RLU
Excerpt: INDIGO's Aryl Hydrocarbon Receptor (AhR) Reporter Cells include the luciferase reporter gene functionally linked to an AhR-responsive promoter. Thus, quantifying changes in luciferase expression in the treated reporter cells provides a sensitive surrogate measure of the changes in AhR activity. The principle application of this reporter assay is in the screening of test samples to quantify any functional activity, either agonist or antagonist, that they may exert against human AhR. Reporter Cells incorporate the cDNA encoding beetle luciferase, a 62 kD protein originating from the North American firefly (Photinus pyralis). Luciferase catalyzes the mono-oxidation of D-luciferin in a Mg^2+-dependent reaction that consumes 02 and ATP as co-substrates, and yields as products oxyluciferin, AMP, PPi, CO2, and photon emission. Luminescence intensity of the reaction is quantified using a luminometer, and is reported in terms of Relative Light Units (RLU's). In brief, 200 μl of Reporter Cells was dispensed into wells of the assay plate and pre-incubated for 4-6 hours. Following the pre-incubation period, culture media were discarded and 200 µl/well of the prepared 1×-concentration treatment media were added. Following 22-24 hours of incubation, treatment media were discarded and Luciferase Detection Reagent was added. The intensity of light emission (in units of “Relative Light Units” (RLU)) from each assay well was quantified using a plate-reading luminometer. The assay was run as a competitive binding assay in the antagonist mode with 50 nM of VAF347, a known AhR agonist.
In Table 4, IC50 values are reported as A, B, C, or D. A represents an IC50 value of less than 100 nM. B represents an IC50 value of equal or greater than 100 nM and less than 500 nM. C represents an IC50 value of equal or greater than 500 nM and less than 1 μM. D represents an IC50 value of equal or greater than 1 μM.

Structure (SMILES)	IC50 [nM]
Cc1cc(Cl)ccc1-c1cc(NC(=O)c2cc3ncccc3cc2Cl)n(C)n1 [Compound 58, 6-Chloro-N-(3-(4-chloro-2-methylphenyl)-1-methyl-1H-pyrazol-5-yl)quinoline-7-carboxamide]	100 to 500
Cc1ccc(C(F)(F)F)cc1-c1cc(NC(=O)c2cc3ncccc3cc2Cl)n(C)n1 [Compound 59]	100 to 500
Cn1nc(C(F)(F)F)cc1NC(=O)c1ccc2cc(-c3cccc(F)c3)cnc2c1 [Compound 60, 3-(3-Fluorophenyl)-N-[1-methyl-3-(trifluoromethyl)-1H-pyrazol-5-yl]quinoline-7-carboxamide]	> 1000
Cn1nc(C(F)(F)F)cc1NC(=O)c1ccc2cc(-c3ccc(F)cc3)cnc2c1 [Compound 61, 3-(4-Fluorophenyl)-N-[1-methyl-3-(trifluoromethyl)-1H-pyrazol-5-yl]quinoline-7-carboxamide]	< 100
Cc1ccc(-c2cnc3cc(C(=O)Nc4cc(C(F)(F)F)nn4C)ccc3c2)cc1 [Compound 62, N-[1-Methyl-3-(trifluoromethyl)-1H-pyrazol-5-yl]-3-(4-methylphenyl) quinoline-7-carboxamide]	100 to 500
CCN1CCN(c2ccc(NC(=O)c3ccc4cc(-c5ccccc5)cnc4c3)cc2F)CC1 [Compound 64, N-[4-(4-ethylpiperazin-1-yl)-3-fluorophenyl]-3-phenylquinoline-7-carboxamide]	> 1000
Cn1nc(C(F)(F)F)cc1NC(=O)c1ccc2cc(-c3cccc(Cl)c3)cnc2c1 [Compound 65, 3-(3-chlorophenyl)-N-[1-methyl-3-(trifluoromethyl)-1H-pyrazol-5-yl]quinoline-7-carboxamide]	> 1000
Cn1nc(C(F)(F)F)cc1NC(=O)c1ccc2cc(-c3ccccc3Cl)cnc2c1 [Compound 66, 3-(2-Chlorophenyl)-N-[1-methyl-3-(trifluoromethyl)-1H-pyrazol-5-yl]quinoline-7-carboxamide]	100 to 500
Cn1nc(C(F)(F)F)cc1NC(=O)c1ccc2cc(-c3ccsc3)cnc2c1 [Compound 67, N-[1-Methyl-3-(trifluoromethyl)-1H-pyrazol-5-yl]-3-(thiophen-3-yl)quinoline-7-carboxamide]	< 100
Cn1nc(C(F)(F)F)cc1NC(=O)c1ccc2cc(-c3cccs3)cnc2c1 [Compound 73, N-[1-Methyl-3-(trifluoromethyl)-1H-pyrazol-5-yl]-3-(thiophen-2-yl)quinoline-7-carboxamide]	< 100
Cn1nc(C(C)(C)C)cc1NC(=O)c1ccc2cc(-c3ccc(F)cc3)cnc2c1 [Compound 74, 3-(4-Fluorophenyl)-N-[1-methyl-3-(tert-butyl)-1H-pyrazol-5-yl]quinoline-7-carboxamide]	100 to 500
Cn1nc(C(F)(F)F)cc1NC(=O)c1ccc2cc(-c3ccc(F)cc3F)cnc2c1 [Compound 75, 3-(2,4-Difluorophenyl)-N-[1-methyl-3-(trifluoromethyl)-1H-pyrazol-5-yl]quinoline-7-carboxamide]	< 100
Cn1nccc1NC(=O)c1ccc2c(Oc3ccccc3)ccnc2c1 [Compound 76, N-(1-Methyl-1H-pyrazol-5-yl)-4-phenoxyquinoline-7-carboxamide]	> 1000
Cn1nc(C(F)(F)F)cc1NC(=O)c1ccc2cc(-c3cccnc3)cnc2c1 [Compound 77, N-[1-methyl-3-(trifluoromethyl)-1H-pyrazol-5-yl]-3-(pyridin-3-yl)quinoline-7-carboxamide]	> 1000
Cn1nc(C(F)(F)F)cc1NC(=O)c1ccc2cc(-c3ccncc3)cnc2c1 [Compound 78, N-[1-methyl-3-(trifluoromethyl)-1-pyrazol-yl]-3-(pyridin-4-yl)quinoline-7-carboxamide]	100 to 500
O=C(Nc1ccc(C(F)(F)F)nc1)c1ccc2c(N3CCOCC3)ccnc2c1 [Compound 80, 4-morpholino-N-(6-(trifluoromethyl)pyridin-3-yl)quinoline-7-carboxamide]	> 1000
Cc1ccccc1-c1cnc2cc(C(=O)Nc3ccc(C(F)(F)F)nc3)ccc2c1 [Compound 81, 3-(o-tolyl)-N-(6-(trifluoromethyl)pyridin-3-yl)quinoline-7-carboxamide]	100 to 500

Results, then the compound that gave them:

IC50 [nM]	Structure (SMILES)
500 to 1000	O=C(Nc1ccc(C(F)(F)F)nc1)c1ccc2cc(-c3nccs3)cnc2c1 [Compound 83, 3-(thiazol-2-yl)-N-(6-(trifluoromethyl)pyridin-3-yl)quinoline-7-carboxamide]
500 to 1000	Cn1cc(-c2ccccc2)nc1NC(=O)c1cc2ncccc2cc1Cl [Compound 90, 6-chloro-N-(1-methyl-4-phenyl-1H-imidazol-2-yl)quinoline-7-carboxamide]
< 100	Cn1nc(C(F)(F)F)cc1NC(=O)c1ccc2cc(-c3nccs3)cnc2c1 [Compound 93, N-(1-methyl-3-(trifluoromethyl)-1H-pyrazol-5-yl)-3-(thiazol-2-yl)quinoline-7-carboxamide]
< 100	Cc1ccccc1-c1cc(NC(=O)c2ccc3cc(-c4ccc(F)cc4)cnc3c2)n(C)n1 [Compound 95, 3-(4-fluorophenyl)-N-(1-methyl-3-(o-tolyl)-1H-pyrazol-5-yl)quinoline-7-carboxamide]
< 100	Cc1ccccc1-c1cc(NC(=O)c2ccc3cc(-c4ccc(F)cc4F)cnc3c2)n(C)n1 [Compound 96, 3-(2,4-difluorophenyl)-N-(1-methyl-3-(o-tolyl)-1H-pyrazol-5-yl)quinoline-7-carboxamide]
< 100	Cc1ccccc1-c1cc(NC(=O)c2ccc3cc(-c4cccs4)cnc3c2)n(C)n1 [Compound 97, N-(1-methyl-3-(o-tolyl)-1H-pyrazol-5-yl)-3-(thiophen-2-yl)quinoline-7-carboxamide]
100 to 500	Cn1nc(C(F)(F)F)cc1NC(=O)c1ccc2cc(-c3ccncc3F)cnc2c1 [Compound 98, 3-(3-fluoropyridin-4-yl)-N-[1-methyl-3-(trifluoromethyl)-1H-pyrazol-5-yl]quinoline-7-carboxamide]
> 1000	CC(C)Oc1ccnc2cc(C(=O)Nc3cc(C(F)(F)F)nn3C)ccc12 [Compound 99, 4-Isopropoxy-N-[1-methyl-3-(trifluoromethyl)-1H-pyrazol-5-yl]quinoline-7-carboxamide]
< 100	Cn1nc(C(F)(F)F)cc1NC(=O)c1ccc2cc(-c3ccccn3)cnc2c1 [Compound 100, N-(1-methyl-3-(trifluoromethyl)-1H-pyrazol-5-yl)-3-(pyridine-2-yl)quinoline-7-carboxamide]
< 100	Cn1nc(C(F)(F)F)cc1NC(=O)c1ccc2cc(-c3ccc(F)cn3)cnc2c1 [Compound 101, 3-(5-fluoropyridin-2-yl)-N-(1-methyl-3-(trifluoromethyl)-1H-pyrazol-5-yl)quinoline-7-carboxamide]
< 100	Cn1nc(C(F)(F)F)cc1NC(=O)c1ccc2cc(-c3ncc(F)cn3)cnc2c1 [Compound 123, 3-(5-fluoropyrimidin-2-yl)-N-[1-methyl-3-(trifluoromethyl)-1H-pyrazol-5-yl]quinoline-7-carboxamide]
< 100	Cn1nc(C(F)(F)F)cc1NC(=O)c1ccc2cc(-c3ncc(F)cc3F)cnc2c1 [Compound 124, 3-(3,5-difluoropyridin-2-yl)-N-[l-methyl-3-(trifluoromethyl)-1H-pyrazol-5-yl]quinoline-7-carboxamide]
